Assay results from ChEMBL document CHEMBL5131384, “Design, synthesis, and biological evaluation of indole-based hydroxamic acid derivatives as histone deacetylase inhibitors” (Eur J Med Chem, 2022).

What follows are compounds tested against Histone deacetylase 1 (Homo sapiens, UniProt Q13547) (assay: Inhibition of HDAC1 (unknown origin) using Boc-Lys(Ac)-AMC as substrate incubated for 60 mins by fluorescence plate reader assay).
Sequence of Histone deacetylase 1 (Q13547 whole entry): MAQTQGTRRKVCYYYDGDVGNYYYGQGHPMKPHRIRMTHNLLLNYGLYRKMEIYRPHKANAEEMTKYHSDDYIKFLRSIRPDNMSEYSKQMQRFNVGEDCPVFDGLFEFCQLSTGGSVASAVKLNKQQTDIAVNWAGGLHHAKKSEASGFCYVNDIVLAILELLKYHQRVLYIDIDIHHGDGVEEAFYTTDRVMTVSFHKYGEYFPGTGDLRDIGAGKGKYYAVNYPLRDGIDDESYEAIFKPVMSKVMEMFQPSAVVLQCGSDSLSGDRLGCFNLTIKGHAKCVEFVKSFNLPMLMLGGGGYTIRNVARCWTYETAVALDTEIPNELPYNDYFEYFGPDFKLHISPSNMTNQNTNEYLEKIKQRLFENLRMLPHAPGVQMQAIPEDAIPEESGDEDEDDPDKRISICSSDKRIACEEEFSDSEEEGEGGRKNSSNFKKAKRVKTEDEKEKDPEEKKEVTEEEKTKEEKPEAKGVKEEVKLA
`O=C(CCCCCCn1cc(C(=O)NC2CCCCCC2)c2ccccc21)NO` was tested, and the IC50 was 2 nM. Work on `O=C(CCCCn1cc(C(=O)NC2C3CC4CC(C3)CC2C4)c2ccccc21)NO` (centres undefined) yielded an IC50 of 53.6 nM. `CC(=O)SCCCCCCCn1cc(C(=O)NC2C3CC4CC(C3)CC2C4)c2ccccc21` (centres undefined) gave an IC50 of over 1000 nM. With `O=C(NO)c1ccc(Cn2cc(C(=O)NC3C4CC5CC(C4)CC3C5)c3ccccc32)cc1` (centres undefined) the IC50 was 115 nM. `O=C(CCCCCCn1cc(C(=O)N2CCOCC2)c2ccccc21)NO` showed an IC50 of 8.95 nM. `O=C(CCCCCn1cc(C(=O)NC2C3CC4CC(C3)CC2C4)c2ccccc21)NO` (centres undefined) was tested, and the IC50 was 67.4 nM. For `O=C(NC1C2CC3CC(C2)CC1C3)c1cn(CCCCCCCS)c2ccccc12` (centres undefined), the IC50 was 188 nM. With `O=C(CCCCCCn1c(C(=O)NC2C3CC4CC(C3)CC2C4)nc2ccccc21)NO` (centres undefined) the IC50 was 1.68 nM. `CC(=O)SCCCCCCn1cc(C(=O)NC2C3CC4CC(C3)CC2C4)c2ccccc21` (centres undefined) gave an IC50 of over 1000 nM. Compound `O=C(NC1C2CC3CC(C2)CC1C3)c1cn(CCCCCCS)c2ccccc12` (centres undefined) has an IC50 of 169 nM. `O=C(CCCCCCn1c(C(=O)NC2C3CC4CC(C3)CC2C4)cc2cc(Cl)ccc21)NO` (centres undefined) gave an IC50 of 2.16 nM. In the case of `O=C(/C=C/c1ccc(Cn2cc(C(=O)NC3C4CC5CC(C4)CC3C5)c3ccccc32)cc1)NO` (centres undefined), the IC50 is reported as 143 nM.

The compounds below were run against T1, Protein deacetylase HDAC6 (Homo sapiens, UniProt Q9UBN7) (assay: Inhibition of HDAC6 (unknown origin) using Boc-Lys(Ac)-AMC as substrate incubated for 60 mins by fluorescence plate reader assay).
T1 sequence (Q9UBN7 whole entry): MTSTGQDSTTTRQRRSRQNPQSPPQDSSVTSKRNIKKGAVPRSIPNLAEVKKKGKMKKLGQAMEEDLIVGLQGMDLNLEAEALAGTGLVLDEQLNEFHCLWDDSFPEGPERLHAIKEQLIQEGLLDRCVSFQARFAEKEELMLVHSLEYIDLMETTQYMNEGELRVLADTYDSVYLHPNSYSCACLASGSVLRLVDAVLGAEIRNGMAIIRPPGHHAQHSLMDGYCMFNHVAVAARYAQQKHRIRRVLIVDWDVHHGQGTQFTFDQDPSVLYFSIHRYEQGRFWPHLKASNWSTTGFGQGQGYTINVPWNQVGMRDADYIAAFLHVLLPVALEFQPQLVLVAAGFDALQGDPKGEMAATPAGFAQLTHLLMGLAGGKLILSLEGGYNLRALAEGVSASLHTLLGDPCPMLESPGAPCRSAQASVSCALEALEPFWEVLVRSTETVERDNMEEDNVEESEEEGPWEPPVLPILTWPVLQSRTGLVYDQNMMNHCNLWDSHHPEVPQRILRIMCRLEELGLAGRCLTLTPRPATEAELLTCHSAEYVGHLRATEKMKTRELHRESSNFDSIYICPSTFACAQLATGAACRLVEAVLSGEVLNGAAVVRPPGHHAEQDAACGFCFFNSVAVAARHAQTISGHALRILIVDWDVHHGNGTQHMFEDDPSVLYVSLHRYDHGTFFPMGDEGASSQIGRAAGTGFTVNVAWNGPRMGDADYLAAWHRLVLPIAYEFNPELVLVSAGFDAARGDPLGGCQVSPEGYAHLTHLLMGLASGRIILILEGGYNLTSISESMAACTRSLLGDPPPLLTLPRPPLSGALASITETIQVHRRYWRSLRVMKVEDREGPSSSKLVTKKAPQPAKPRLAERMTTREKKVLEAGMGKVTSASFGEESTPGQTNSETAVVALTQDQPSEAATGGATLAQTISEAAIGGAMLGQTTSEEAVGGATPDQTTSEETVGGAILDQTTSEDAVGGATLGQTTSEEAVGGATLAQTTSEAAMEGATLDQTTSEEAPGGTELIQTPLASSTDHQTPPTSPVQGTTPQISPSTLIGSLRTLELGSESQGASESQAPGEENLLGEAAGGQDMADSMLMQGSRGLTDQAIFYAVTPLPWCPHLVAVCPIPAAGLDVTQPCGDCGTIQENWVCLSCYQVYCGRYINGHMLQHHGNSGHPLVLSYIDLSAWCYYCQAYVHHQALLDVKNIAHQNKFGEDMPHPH
`O=C(CCCCCCn1cc(C(=O)NC2CCCCCC2)c2ccccc21)NO` was tested, and the IC50 was 2.11 nM. In the case of `O=C(CCCCn1cc(C(=O)NC2C3CC4CC(C3)CC2C4)c2ccccc21)NO` (centres undefined), the IC50 is reported as 39.9 nM. `CC(=O)SCCCCCCCn1cc(C(=O)NC2C3CC4CC(C3)CC2C4)c2ccccc21` (centres undefined) showed an IC50 of over 1000 nM. Work on `O=C(NO)c1ccc(Cn2cc(C(=O)NC3C4CC5CC(C4)CC3C5)c3ccccc32)cc1` (centres undefined) yielded an IC50 of 5.29 nM. In the case of `O=C(CCCCCCn1cc(C(=O)N2CCOCC2)c2ccccc21)NO`, the IC50 is reported as 7.59 nM. With `O=C(CCCCCn1cc(C(=O)NC2C3CC4CC(C3)CC2C4)c2ccccc21)NO` (centres undefined) the IC50 was 10.4 nM. `O=C(NC1C2CC3CC(C2)CC1C3)c1cn(CCCCCCCS)c2ccccc12` (centres undefined) showed an IC50 of 232 nM. In the case of `O=C(CCCCCCn1c(C(=O)NC2C3CC4CC(C3)CC2C4)nc2ccccc21)NO` (centres undefined), the IC50 is reported as 5.25 nM. Compound `CC(=O)SCCCCCCn1cc(C(=O)NC2C3CC4CC(C3)CC2C4)c2ccccc21` (centres undefined) has an IC50 of over 1000 nM. `O=C(NC1C2CC3CC(C2)CC1C3)c1cn(CCCCCCS)c2ccccc12` (centres undefined) was tested, and the IC50 was 19 nM. For `O=C(CCCCCCn1c(C(=O)NC2C3CC4CC(C3)CC2C4)cc2cc(Cl)ccc21)NO` (centres undefined), the IC50 was 6.84 nM. `O=C(/C=C/c1ccc(Cn2cc(C(=O)NC3C4CC5CC(C4)CC3C5)c3ccccc32)cc1)NO` (centres undefined) gave an IC50 of 73.3 nM.
